{"source": "patent US20030129629A1", "about": "“Methods and compositions for the identification, assessment, prevention, and therapy of human cancers” (Millennium Pharmaceuticals, Inc., priority 2000, published 2003)", "key": {"[1]": {"system": "60 cancer cell lines (NCI 60 cancer cell line series)", "assay": "NCI-DTP in vitro cancer screen, sulforhodamine B (SRB) growth inhibition, 48 hour exposure", "type": "cell-based, human", "outline": "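NCI-DTP panel of 60 cancer cell lines plated day 0 at line-specific densities, exposed from day 1 to compound at 5 ten-fold-spaced doses in duplicate wells. After 48 h, cell mass stained with sulforhodamine B; −log GI50 derived from dose–response curves, averaged, and classed Low, Medium or High sensitivity.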"}, "[2]": {"system": "60 cancer cell lines (NCI 60 cancer cell line series)", "settings": "cited from earlier work"}}, "note": "Read-outs that look alike come from different tables or passages of the source.", "data": [{"smiles": "COc1cccc2c1C(=O)c1c(O)c3c(c(O)c1C2=O)C[C@@](O)(C(=O)CO)C[C@@H]3O[C@H]1C[C@H](N)[C@H](O)[C@H](C)O1", "note": "[Adriamycin]", "values": [{"measurement": "classification of cell line as Low(1), Medium(2), High(3) sensitivity to compound", "setting": "[1]; Breast BT-549 CL5013", "value": 2}, {"measurement": "classification of cell line as Low(1), Medium(2), High(3) sensitivity to compound", "setting": "[1]; Breast HS-578T CL5006", "value": 2}, {"measurement": "classification of cell line as Low(1), Medium(2), High(3) sensitivity to compound", "setting": "[1]; Breast MCF7(I) CL5001", "value": 3}, {"measurement": "classification of cell line as Low(1), Medium(2), High(3) sensitivity to compound", "setting": "[1]; Breast MCF7/ADRr CL5002", "value": 1}, {"measurement": "classification of cell line as Low(1), Medium(2), High(3) sensitivity to compound", "setting": "[1]; Breast MDA-MB-231 CL5005", "value": 2}, {"measurement": "classification of cell line as Low(1), Medium(2), High(3) sensitivity to compound", "setting": "[1]; Breast MDA-MB-435 CL5011", "value": 2}, {"measurement": "classification of cell line as Low(1), Medium(2), High(3) sensitivity to compound", "setting": "[1]; Breast MDA-N CL5012", "value": 2}, {"measurement": "classification of cell line as Low(1), Medium(2), High(3) sensitivity to compound", "setting": "[1]; Breast T-47D CL5014", "value": 2}, {"measurement": "classification of cell line as Low(1), Medium(2), High(3) sensitivity to compound", "setting": "[1]; CNS SF-268 CL12014", "value": 2}, {"measurement": "classification of cell line as Low(1), Medium(2), High(3) sensitivity to compound", "setting": "[1]; CNS SF-295 CL12015", "value": 2}, {"measurement": "classification of cell line as Low(1), Medium(2), High(3) sensitivity to compound", "setting": "[1]; CNS SF-539 CL12016", "value": 2}, {"measurement": "classification of cell line as Low(1), Medium(2), High(3) sensitivity to compound", "setting": "[1]; CNS SNB-19 CL12002", "value": 2}, {"measurement": "classification of cell line as Low(1), Medium(2), High(3) sensitivity to compound", "setting": "[1]; CNS SNB-75(I) CL12005", "value": 2}, {"measurement": "classification of cell line as Low(1), Medium(2), High(3) sensitivity to compound", "setting": "[1]; CNS U251(I) CL12009", "value": 2}, {"measurement": "classification of cell line as Low(1), Medium(2), High(3) sensitivity to compound", "setting": "[1]; Colon COLO-250 CL4010", "value": 2}, {"measurement": "classification of cell line as Low(1), Medium(2), High(3) sensitivity to compound", "setting": "[1]; Colon HCC-2998 CL4002", "value": 2}, {"measurement": "classification of cell line as Low(1), Medium(2), High(3) sensitivity to compound", "setting": "[1]; Colon HCT-15 CL4015", "value": 1}, {"measurement": "classification of cell line as Low(1), Medium(2), High(3) sensitivity to compound", "setting": "[1]; Colon HCT-116 CL4003", "value": 2}, {"measurement": "classification of cell line as Low(1), Medium(2), High(3) sensitivity to compound", "setting": "[1]; Colon HT29(I) CL4001", "value": 2}, {"measurement": "classification of cell line as Low(1), Medium(2), High(3) sensitivity to compound", "setting": "[1]; Colon KM12 CL4017", "value": 2}, {"measurement": "classification of cell line as Low(1), Medium(2), High(3) sensitivity to compound", "setting": "[1]; Colon SW-620 CL4009", "value": 2}, {"measurement": "classification of cell line as Low(1), Medium(2), High(3) sensitivity to compound", "setting": "[1]; Leukemia CCRF-CEM(I) CL7003", "value": 3}, {"measurement": "classification of cell line as Low(1), Medium(2), High(3) sensitivity to compound", "setting": "[1]; Leukemia HL-60(I) CL7008", "value": 2}, {"measurement": "classification of cell line as Low(1), Medium(2), High(3) sensitivity to compound", "setting": "[1]; Leukemia K562(I) CL7005", "value": 2}, {"measurement": "classification of cell line as Low(1), Medium(2), High(3) sensitivity to compound", "setting": "[1]; Leukemia MOLT-4 CL7006", "value": 3}, {"measurement": "classification of cell line as Low(1), Medium(2), High(3) sensitivity to compound", "setting": "[1]; Leukemia RPMI-8226(I) CL7010", "value": 2}, {"measurement": "classification of cell line as Low(1), Medium(2), High(3) sensitivity to compound", "setting": "[1]; Leukemia SR CL7019", "value": 3}, {"measurement": "classification of cell line as Low(1), Medium(2), High(3) sensitivity to compound", "setting": "[1]; Melanoma LOX IMVI CL10001", "value": 2}, {"measurement": "classification of cell line as Low(1), Medium(2), High(3) sensitivity to compound", "setting": "[1]; Melanoma M14 CL10014", "value": 2}, {"measurement": "classification of cell line as Low(1), Medium(2), High(3) sensitivity to compound", "setting": "[1]; Melanoma MALME-3M CL10002", "value": 2}, {"measurement": "classification of cell line as Low(1), Medium(2), High(3) sensitivity to compound", "setting": "[1]; Melanoma SK-MEL-2 CL10005", "value": 2}, {"measurement": "classification of cell line as Low(1), Medium(2), High(3) sensitivity to compound", "setting": "[1]; Melanoma SK-MEL-28 CL10008", "value": 2}, {"measurement": "sensitivity classification Low(1)/Medium(2)/High(3)", "setting": "[1]; NSCLC NCI-H23(I) CL1001", "value": 2}, {"measurement": "sensitivity classification Low(1)/Medium(2)/High(3)", "setting": "[1]; NSCLC NCI-H332M CL1017", "value": 1}, {"measurement": "sensitivity classification Low(1)/Medium(2)/High(3)", "setting": "[1]; NSCLC NCI-H460 CL1021", "value": 3}, {"measurement": "sensitivity classification Low(1)/Medium(2)/High(3)", "setting": "[1]; NSCLC NCI-H522 CL1003", "value": 2}, {"measurement": "sensitivity classification Low(1)/Medium(2)/High(3)", "setting": "[1]; Ovarian IGROV1 CL6010", "value": 2}, {"measurement": "sensitivity classification Low(1)/Medium(2)/High(3)", "setting": "[1]; Ovarian OVCAR-3 CL6001", "value": 2}, {"measurement": "sensitivity classification Low(1)/Medium(2)/High(3)", "setting": "[1]; Ovarian OVCAR-4 CL6002", "value": 1}, {"measurement": "sensitivity classification Low(1)/Medium(2)/High(3)", "setting": "[1]; Ovarian OVCAR-5 CL6003", "value": 1}, {"measurement": "sensitivity classification Low(1)/Medium(2)/High(3)", "setting": "[1]; Ovarian OVCAR-8 CL6005", "value": 2}, {"measurement": "sensitivity classification Low(1)/Medium(2)/High(3)", "setting": "[1]; Ovarian SK-OV-3 CL6011", "value": 2}, {"measurement": "sensitivity classification Low(1)/Medium(2)/High(3)", "setting": "[1]; Prostate DU-145 CL11003", "value": 2}, {"measurement": "sensitivity classification Low(1)/Medium(2)/High(3)", "setting": "[1]; Prostate PC-3(I) CL11001", "value": 2}, {"measurement": "sensitivity classification Low(1)/Medium(2)/High(3)", "setting": "[1]; Renal 786-0 CL9018", "value": 2}, {"measurement": "sensitivity classification Low(1)/Medium(2)/High(3)", "setting": "[1]; Renal A498 CL9013", "value": 2}, {"measurement": "sensitivity classification Low(1)/Medium(2)/High(3)", "setting": "[1]; Renal ACHN CL9023", "value": 2}, {"measurement": "sensitivity classification Low(1)/Medium(2)/High(3)", "setting": "[1]; Renal CAKI-1 CL9015", "value": 2}, {"measurement": "sensitivity classification Low(1)/Medium(2)/High(3)", "setting": "[1]; Renal RXF-393 CL9016", "value": 2}, {"measurement": "sensitivity classification Low(1)/Medium(2)/High(3)", "setting": "[1]; Renal SN12C CL9008", "value": 2}, {"measurement": "sensitivity classification Low(1)/Medium(2)/High(3)", "setting": "[1]; Renal TK10 CL9024", "value": 2}, {"measurement": "sensitivity classification Low(1)/Medium(2)/High(3)", "setting": "[1]; Renal UO-31 CL9004", "value": 1}, {"measurement": "−Log (GI50)", "setting": "[2]; Melanoma SK-MEL-2 CL10005", "value": 6.6}, {"measurement": "−Log (GI50)", "setting": "[2]; Melanoma SK-MEL-28 CL10008", "value": 6.5}, {"measurement": "−Log (GI50)", "setting": "[2]; NSCLC NCI-H226 CL1013", "value": 7.2}]}]}
